Experimental data taken from patent US12014835B2, “Methods for evaluating therapeutic benefit of combination therapies” (Vanderbilt University, priority 2020, dated 2024).

What was measured:
Format in all cases: cell-based
[1] = system: A2058; assay: MuSyC analysis of PLX4720 in combination with NOX5 inhibitor DPI; settings: in combination with PLX4720, A2058 cell line
Source text: FIG. 4E depicts pairwise comparison between SC01 and SC10 of DEGs (FDR<0.001) identified using DESeq2 (Love, M. I. et al., Genome Biol. (2014) Vol. 15, p. 550). The 200 identified DEGs (ANOVA between three subclones) are in black. The dotted red lines denote ±4-fold change. FIG. 4F depicts the dose-response surface for PLX4270 plus DPI (a NOX5 inhibitor) in the A2058 cell line, using the same format as in FIGS. 2B and 2C.
FIGS. 4G, 4H, and 4I depict additional MuSyC analysis of the effect of the combination therapy with PLX4270 and DPI. FIG. 4G depicts a DSD for NOX5i (DPI) plus BRAFi (PLX4720). FIG. 4H depicts the correlation (Pearson r) of NOX5 expression with observed synergistic efficacy (βobs). FIG. 4I depicts the correlation (Pearson r) of NOX5 expression with synergistic potency, where α2 is DPI's effect on PLX4720 potency. Error bars represent parameter uncertainty calculated in MCMC fitting.
To study NOX5's contribution to the potency or efficacy of BRAFi, PLX4720 was tested in combination with a NOX5 inhibitor, DPI, in a panel of 7 melanoma cell lines selected based on differential NOX5 expression. […] See also, Meyer et al. in Cell Systems (2010) vol 8, pages 97-108, which is hereby incorporated by reference for all purposes.

[2] = system: PC9 cells; assay: MuSyC drug combination screen with osimertinib, DIP rate, high-throughput in vitro assay; settings: for synergistic efficacy (in words): drug-synergy diagram; for observed synergistic efficacy (βobs): at the maximum tested dose range
Description: FIG. 2A illustrates a high-throughput pipeline for generating dose-response surfaces. Initial drug matrix is prepared on a 384-well plate and transferred to cells seeded at subconfluent densities. Cells are engineered to express a fluorescently tagged histone (H2B-RFP), allowing for cell counts using automated segmentation software. Each condition is imaged every 6-8 h, resulting in growth curves. The growth curves are fit to determine the drug-induced proliferation (DIP) rate (slope of dotted line, vide infra) to quantify drug effect. This matrix of DIP rates is fit to our equation to extract synergy parameters.
MuSyC was applied to evaluate the synergistic potency and efficacy of a 64-drug panel (see Table 1 for drugs, drug classes, nominal targets, and tested concentration ranges) in combination with osimertinib, a mutant EGFR-tyrosine kinase inhibitor recently approved for first-line treatment of EGFR-mutant NSCLC. The selected drugs span a diverse array of cellular targets that can be broadly grouped into four categories: kinases, receptors and channels, epigenetic regulators, and mitotic checkpoints, each with several sub-categories. The combinations were tested in PC9 cells, a canonical model of EGFR-mutant NSCLC using a high-throughput, in vitro, drug-screening assay (FIG. 2A).
Applying this algorithm, synergy parameters (α1, α2, and βobs) were extracted from fitted surfaces for all osimertinib combinations (βobs is the observed synergistic efficacy at the maximum tested dose range).

[3] = system: A2058_SKIN; assay: BRAFi sensitivity, DIP rate
Description: (§1) FIGS. 4A, 4B, and 4C depict data used to identify and characterize the top 200 differentially expressed genes (DEGs) between subclones of a BRAF-mutant melanoma cell line (SKMEL5) with differential sensitivity to BRAFi. FIG. 4A depicts growth curves of differentially sensitive, single-cell-derived subclones from SKMEL5 treated with 8 μM PLX4720. Gray curves represent colony growth according to the clonal fractional proliferation assay (Tyson, D. R. et al., Nature Methods (2012) Vol. 9, pp. 923-928). The average population response is indicated in the black curve. SC01, SC07, and SC10 were subsequently used to identify 200 DEGs. FIG. 4B depicts the top gene set enrichment terms for the identified 200 DEGs. FIG. 4C depicts a distribution of the correlation between the identified 200 DEGs' expression and BRAFi insensitivity. Drug sensitivity was quantified as DIP rate measured in 8 μM PLX4720. The threshold of p value <0.05 is annotated in pink.
(§2) Specifically, gene expression was quantified using RNA sequencing (RNA-seq) and the top 200 differentially expressed genes (DEGs) (FDR<0.001) were identified. […] The correlation was computed of the 200 DEGs' expression to BRAFi sensitivity across a 10-cell-line panel using expression data from Subramanian, A. et al. (2017). in Cell vol. 171, 1437-1452.e17.

[4] = system: SKMEL5_SKIN; assay: BRAFi sensitivity, DIP rate
Description: as §1, §2

[5] = system: WM983B_SKIN; assay: BRAFi sensitivity, DIP rate
Description: as §1, §2

[6] = system: WM1799_SKIN; assay: BRAFi sensitivity, DIP rate
Description: as §1, §2

[7] = system: A375_SKIN; assay: BRAFi sensitivity, DIP rate
Description: as §1, §2

[8] = system: WM793_SKIN; assay: BRAFi sensitivity, DIP rate
Description: as §1, §2

[9] = system: WM115_SKIN; assay: BRAFi sensitivity, DIP rate
Description: as §1, §2

[10] = system: WM88_SKIN; assay: BRAFi sensitivity, DIP rate
Description: as §1, §2

[11] = system: WM2664_SKIN; assay: BRAFi sensitivity, DIP rate
Description: as §1, §2

[12] = system: SKMEL28_SKIN; assay: BRAFi sensitivity, DIP rate
Description: as §1, §2

[13] = in combination with osimertinib, PC9 cells

Compound: c1ccc2c(c1)[I+]c1ccccc1-2 [DPI]
- observed synergistic efficacy (βobs) [1]: 1.42 ±0.05

Compound: COC(=O)Nc1nc2ccc(Oc3ccc(NC(=O)Nc4ccccc4)cc3)cc2[nH]1 [GW694590a]
- synergistic efficacy (in words) [2, 13]: synergistically efficacious

Compound: CN(C)c1ccc(C(=O)NCCCCCCC(=O)NO)cc1 [M344]
- increase in efficacy over osimertinib alone [2, 13]: 125%
- synergistic potency log(α2): how osimertinib's potency is modulated by the drug [2, 13]: −0.90±0.01
- observed synergistic efficacy (βobs) [2, 13]: 1.25±0.03

Compound: CCCS(=O)(=O)Nc1ccc(F)c(C(=O)c2c[nH]c3ncc(Cl)cc23)c1F [PLX4270]
- DIP Rate at [8 uM] PLX4270 [3]: 0.030 h⁻¹
- DIP Rate at [8 uM] PLX4270 [4]: 0.014 h⁻¹
- DIP Rate at [8 uM] PLX4270 [5]: 0.021 h⁻¹
- DIP Rate at [8 uM] PLX4270 [6]: -0.002 h⁻¹
- DIP Rate at [8 uM] PLX4270 [7]: 0.005 h⁻¹
- DIP Rate at [8 uM] PLX4270 [8]: 0.015 h⁻¹
- DIP Rate at [8 uM] PLX4270 [9]: 0.013 h⁻¹
- DIP Rate at [8 uM] PLX4270 [10]: -0.020 h⁻¹
- DIP Rate at [8 uM] PLX4270 [11]: 0.003 h⁻¹
- DIP Rate at [8 uM] PLX4270 [12]: 0.010 h⁻¹

Compound: Cc1cc(Nc2ncc(Cl)c(Nc3ccccc3S(=O)(=O)C(C)C)n2)c(OC(C)C)cc1C1CCNCC1 [ceritinib]
- EC50 ([2]; Homo sapiens, PC-9, single agent, PC9 cells, DIP rate): 2020 nM
- synergistic potency log(α2): how osimertinib's potency is modulated by the drug [2, 13]: 6.25±0.50
- observed synergistic efficacy (βobs) [2, 13]: 0.28 ±0.003

Compound: CCCCc1oc2ccc(NS(C)(=O)=O)cc2c1C(=O)c1ccc(OCCCN(CCCC)CCCC)cc1 [dronedarone]
- synergistic efficacy (in words) [2, 13]: most antagonistic

Compound: Nc1ccccc1NC(=O)c1ccc(CNC(=O)OCc2cccnc2)cc1 [entinostat]
- observed synergistic efficacy (βobs) [2, 13]: 0.84±0.027

Compound: Cn1cc(CNCC2CCN(c3ncc(C(=O)NO)cn3)CC2)c2ccccc21 [quisinostat]
- total efficacy of the combination (in words) ([2]; in combination with osimertinib, NSCLC screen): greatest total efficacy

Compound: CC[C@]1(O)C[C@@H]2CN(CCc3c([nH]c4ccccc34)[C@@](C(=O)OC)(c3cc4c(cc3OC)N(C)[C@H]3[C@@](O)(C(N)=O)[C@H](O)[C@]5(CC)C=CCN6CC[C@]43[C@@H]65)C2)C1 [vindesine]
- synergistic efficacy (in words) [2, 13]: upward shift along the axis of synergistic efficacy
